Where “and” joins values, the source holds several entries; their conditions need not be identical. Equal entries are not always repeated.
Key:
TNBC cells [1] = assay: Combination index (CI) of binary therapy, Chou-Talalay method, CompuSyn software; assay type: cell-based, human
Procedure: (§1) The calculated CI values are based on 50 nM concentration for the PSs, 50 nM paclitaxel, 500 nM doxorubicin, 25 μM cisplatin, 25 μM fluorouracil, and 500 nM methotrexate.
(§2) Cells were grown to confluence in a 96-well plate (9×10^3 cells/well) and co-treated for 24 hours with synthesized photosensitizers (PSs) and chemotherapeutic agents of varying concentrations ranging from 5 nM to 50 μM) in growth media from a stock solution of 10 mM in DMSO (dimethyl sulfoxide, Fisher). After 24-hour treatment, old growth media containing the PSs or compounds were aspirated out and replaced with fresh media. Plates were then positioned below a non-coherent LumaCare LC-122 650 nm light source for 1 minute at an energy fluence rate of 0.96 J/cm^2 and a power of 16 mW/cm^2 (measured using a Newport optical power meter Model 840). Unirradiated cells served as control samples. The following day, cells were washed with pre-warmed PBS, and 11MTT (3-[4,5-dimethyl-thiazol-2-yl]-2.5-diphenyltetrazolium bromide, Sigma, 0.3 mg/mL) in PBS was added to each well. Samples were allowed to incubate for additional 2 hours, after which dark blue crystals formed. DMSO was added to each well and plates were shaken at room temperature for 1 hour to dissolve the purplish-blue formazan crystals. Absorbance values at 570 nm were measured on a microplate reader (BioRad 550). Cell survival was calculated based on the absorbance of the untreated cells alone (as control) and were directly proportional to the number of viable cells in culture. Results were reported as the mean±SD of triplicate measurements.
The combination index (CI) for the binary treatment of TNBC cells with a PS and a chemotherapeutic drug was calculated based on the Chou-Talalay method using CompuSyn software. […] The unified dynamics algorithm uses a minimum of dose-data points to fit the general MAL theory.
as §1

human TNBC BT-549 cells = assay: Fluorescence microscopy (Hoechst 33258) of cell morphology / cell death pathway; assay type: cell-based
Procedure: Grayscale images of cells stained with Hoechst 33258. Morphology of (A) untreated unirradiated cells, sham control; (B) illuminated cells; (C-E) cells treated with: PSs (InCLA, CBTN, and CPA) and paclitaxel in the dark; (F-H) PSs, followed by 1 minute light exposure; (I) paclitaxel unirradiated; (J-L) PSs and paclitaxel in the dark; (M-O) PSs co-treated with paclitaxel, then light-exposed; (P-Q) PSs co-treated with doxorubicin, then irradiated; (R) PSs and cisplatin, dark; (S-T) PSs and cisplatin, irradiated; (U) fluorouracil, dark; (V) InCLA with fluorouracil in the dark; (W) light-exposed and, (X-Y) PSs with methotrexate with light. Inserts indicate enlarged view. […] Light dose in 1 minute=0.96 J cm^−2; in 30 seconds=0.48 J cm^−2. Concentrations: PSs=50 nM; paclitaxel=50 nM; doxorubicin=500 nM; cisplatin=25 μM; fluororuracil=25 μM; and, methotrexate=500 nM.
Cells (1 mL aliquots) obtained from a diluted cell suspension were seeded into each well (1.7 cm^2, 8×10^3 cells/well) of a 4-well culture slide (BD Biosciences) and grown to confluence in 5% CO2 at 37° C. for 3-4 days for attachment to the substratum. After aspirating the old growth media, 1 mL of the photosensitizer and chemotherapeutic agents (with appropriate concentrations) in fresh pre-warmed media at 37° C. was added to each well. After compound treatment for 24 hours, cells were washed twice with 1 mL fresh growth media, and then irradiated with light using LumaCare LC-122 as described above. Cells were stained in the dark with Hoechst 33258 (Molecular Probes) in pre-warmed media for 10 minutes at 37° C., washed twice with filtered PBS, then fixed with filtered paraformaldehyde for 15 minutes in the incubator. After thorough liquid aspiration, the wells were removed and allowed to air dry in the dark for 1 hour. Slides were protected with coverslips, whose edges were sealed using clear fast-drying nail polish and allowed to dry at room temperature in the dark for 30 minutes. Images were recorded using fluorescence microscopy (DAPI for Hoechst 350-390 nm excitation and 460-490 nm emission filters) using an upright fluorescence microscope with Retiga imaging 2000R (Nikon Optiphot-2, 20× and 40×) and an image processing Nikon NIS-Elements V4.0 Qimaging software.
To determine the preferred cell death pathway for the binary chemophotodynamic therapy, tracking the hallmarks of apoptosis or necrosis was accomplished using a nuclear stain to monitor chromatin condensation and cellular contraction. TNBC cells are spindle-shaped and nearly round with intact cytoplasm, diffused chromatin, distinct cellular membrane, and large oval nuclei staining dark blue with the nuclear stain (FIG. 18A-B).

TNBC BT-549 cells = assay: Cell survival / cell inhibition (MTT cell cytotoxicity assay) after 24 h treatment with photosensitizer and/or chemotherapeutic agent, dark or light-irradiated; assay type: cell-based, human
Procedure: Human mammary epithelial carcinoma cell lines purchased from the American Type Culture Collection BT-549 (ATCC HTB-122) were cultured according to ATCC protocol. BT-549 cells were grown in RPMI 1640 containing 0.023 IU/mL insulin and supplemented with 10% fetal bovine serum (FBS). Cells were grown to 80-90% confluence in 75-cm^2 culture flasks (Corning) for 4-5 days in a humidified incubator (Fisher Scientific Isotemp) with 5% CO2 at 37° C. During the incubation period, growth media was changed once with fresh pre-warmed media (pH 7.2). To harvest the cells, old growth media was aspirated out, and 3 mL 0.25% trypsin solution (Thermo Sci Hyclone) were added. The cells were incubated for 5 minutes, and the cell pellet after centrifugation was resuspended in 3 mL media, broken up gently, then 1 mL of suspended cells was transferred into a new T75 cell culture flask containing pre-warmed media (20 mL) for further culturing.
as §2
The unmetallated PS and the indium complexes were used.
Light dose corresponds to an energy fluence rate of 0.96 J/cm^2 used.
Power of 16 mW/cm^2 used.
Cell inhibition in TNBC cells is based on the cell survival (MTT) assay of the binary therapy, blending the effect of PDT and chemotherapeutic agents. […] MePheo serves as a control compound. TNBC cells were then exposed to light after binary treatment for 24 hours.

TNBC cells [2] = assay: Combination index (CI) of binary therapy, Chou-Talalay method, CompuSyn software; assay type: cell-based, human; details: PS 50 nM + methotrexate 500 μM (footnote 500 nM)

C=Cc1c(C)c2cc3nc(c(CC(=O)OC)c4[nH]c(cc5nc(cc1[nH]2)C(C)=C5CC)c(C)c4C(=O)NCCCCCCNC(=O)CCNC(=O)[C@H](O)C(C)(C)CO)[C@@H](CCC(=O)OC)[C@@H]3C [CPA, chlorin pantothenic acid conjugate]
combination index (CI) with cisplatin (TNBC cells [1]; PS 50 nM + cisplatin 25 μM): 1.30
synergism vs additive vs antagonism effect with cisplatin (TNBC cells [1]; PS 50 nM + cisplatin 25 μM): (MA) (MA (1.20-1.45), moderate antagonism)
combination index (CI) with doxorubicin (TNBC cells [1]; PS 50 nM + doxorubicin 500 nM): 1.52
synergism vs additive vs antagonism effect with doxorubicin (TNBC cells [1]; PS 50 nM + doxorubicin 500 nM): (A) (A (1.45-3.3), antagonism)
ranking of combination partners based on CI, decreasing order (TNBC cells [1]; PS 50 nM + drug): paclitaxel>fluorouracil>methotrexate
combination index (CI) with fluorouracil (TNBC cells [1]; PS 50 nM + fluorouracil 25 μM): 0.45
synergism vs additive vs antagonism effect with fluorouracil (TNBC cells [1]; PS 50 nM + fluorouracil 25 μM): (S) (S (0.3-0.7), synergism)
combination index (CI) with paclitaxel (TNBC cells [1]; PS 50 nM + paclitaxel 50 nM): 0.41
synergism vs additive vs antagonism effect with paclitaxel (TNBC cells [1]; PS 50 nM + paclitaxel 50 nM): (S) (S (0.3-0.7), synergism)
cell morphology, PS co-treated with paclitaxel (human TNBC BT-549 cells; PS 50 nM + paclitaxel 50 nM, light (FIG. 18M-O)): shrunk cells and chromatin fragmentation are evident
cell morphology, PS-treated then light (human TNBC BT-549 cells; PS 50 nM, 24 h, light (FIG. 18F-H)): reduced cellular volume and nuclear density
preferred mode of cell death (human TNBC BT-549 cells; PS co-treated with paclitaxel or cisplatin): apoptosis
cell viability, co-treatment with methotrexate upon light (TNBC BT-549 cells; PS 50 nM + methotrexate 500 nM, light, 1440 min): 66%
cell survival, PS alone (TNBC BT-549 cells; PS 50 nM, light, 1440 min): 99%
cell inhibition (%), combination with cisplatin (TNBC BT-549 cells; PS 100 nM + cisplatin 25 μM, 24 h, light 0.96 J cm−2): 87%
effect of added cisplatin compared to cisplatin-treated cell viability (TNBC BT-549 cells; PS 100 nM + cisplatin 25 μM, light): reduced cell survival
cell survival, co-treatment with cisplatin upon light (TNBC BT-549 cells; PS 100 nM + cisplatin 25 μM, light, 1440 min): 13%
cell survival, co-treatment with doxorubicin in the dark (TNBC BT-549 cells; PS 100 nM + doxorubicin 500 nM, 24 h, dark): 75%
cell inhibition (%), combination with doxorubicin (TNBC BT-549 cells; PS 100 nM + doxorubicin 500 nM, 24 h, light 0.96 J cm−2): 73%
cell survival, co-treatment with doxorubicin upon light (TNBC BT-549 cells; PS 100 nM + doxorubicin 500 nM, light, 1440 min, 0.1 µM): 37% and 27%
best combination partner (TNBC BT-549 cells; PS 100 nM + drug, light): cisplatin is the best, next doxorubicin, then paclitaxel
cell inhibition (%), combination with fluorouracil (TNBC BT-549 cells; PS 100 nM + fluorouracil 25 μM, 24 h, light 0.96 J cm−2): 43%
effect of added fluorouracil compared to fluorouracil-treated cell viability (TNBC BT-549 cells; PS 100 nM + fluorouracil 25 μM, light): reduced cell survival
cell survival, co-treatment with fluorouracil upon light (TNBC BT-549 cells; PS 100 nM + fluorouracil 25 μM, light, 1440 min): 57%
cell inhibition (%), combination with methotrexate (TNBC BT-549 cells; PS 100 nM + methotrexate 500 nM, 24 h, light 0.96 J cm−2): 33%
cell inhibition (%), combination with paclitaxel (TNBC BT-549 cells; PS 100 nM + paclitaxel 50 nM, 24 h, light 0.96 J cm−2): 63%
cell survival, co-treatment with paclitaxel upon light (TNBC BT-549 cells; PS 100 nM + paclitaxel 50 nM, light, 1440 min): 37%
chemophotodynamic potency against TNBC cells, summary (TNBC BT-549 cells; PS 100 nM alone or in combination, light): better activity against TNBC cells than the starting compound MePheo
cell survival, PS alone (TNBC BT-549 cells; PS 100 nM, light 0.96 J/cm^2, 1440 min, 0.1 µM): 75.3% and 75%
cytotoxicity in the absence of light, PS alone (TNBC BT-549 cells; PS 500 nM, dark): No cytotoxicity
combination therapy vs monotherapy (cisplatin) (TNBC BT-549 cells; PS + cisplatin, light): better photodynamic effect when co-treated with cisplatin than PS-treatment alone
combination therapy vs monotherapy (doxorubicin) (TNBC BT-549 cells; PS + doxorubicin, light): better photodynamic effect when co-treated with doxorubicin than PS-treatment alone
combination therapy vs monotherapy (fluorouracil) (TNBC BT-549 cells; PS + fluorouracil, light): better photodynamic effect when co-treated with fluorouracil than PS-treatment alone
combination therapy vs monotherapy (methotrexate) (TNBC BT-549 cells; PS + methotrexate, light): best compared to monotherapy alone and with the other PSs used
cell viability reduction (difference) vs PS alone (TNBC BT-549 cells; PS at lower concentration (CPA: 50 nM) + methotrexate 500 nM, light): 33%
combination index (CI) with methotrexate (TNBC cells [2]): 0.50
synergism vs additive vs antagonism effect with methotrexate (TNBC cells [2]): (S) (S (0.3-0.7), synergism)

Source: patent US20260306633A1, “A COMBINATION THERAPY FOR CANCER TREATMENT” (Purdue Research Foundation, priority 2023, published 2026)
